Assay results from patent US20190359653A1, “SELECTIVE PEPTIDE INHIBITORS OF FRIZZLED” (Genentech, Inc., priority 2016, published 2019).
Peptide text beside a SMILES is read from it. * marks the point of attachment. 5FAM = O=C1OC2(c3ccc(O)cc3Oc3cc(O)ccc32)c2ccc(C(=O)*)cc21

Tests used:
FZD CRD-Fc = experiment: binding of 5FAM peptides to the FZD CRD-Fc panel
Procedure: Control experiments using 5FAM-Fz7-21S were performed in parallel. 5FAM-Fz7-21 or 5FAM-Fz721S was incubated with each of the aforementioned FZD CRD-Fcs overnight at 4° C. in PBS and resolved via SEC.
In FIGS. 3A-3I, 5FAM-Fz7-21 or 5FAM-Fz7-21S (50 nM in PBS) was incubated with increasing concentration of FZD CRD-Fc (2-fold serial dilutions), and fluorescence intensity was measured using either a Monolith NT.115 or NT.115Pico instrument (NanoTemper Technologies). EC50 values represent the 95% confidence interval of at least three independent experiments, excepting hFZD1 CRD-Fc+5FAM-Fz7-21S, which was done twice. EC50 ovalues were calculated with Prism Graphpad using the Log(agonist) vs. response [variable slope (four parameters) function: Y=Bottom+(Top-Bottom)/(1+10^((Log EC−X)*HillSlope))]. Plotted values represent the mean±s.e.m.

FZD CRD-Fc proteins = experiment: fluorescence size-exclusion chromatography (FSEC) with FZD CRD-Fc proteins; format: binding; conditions: 1 μM peptide, 250 nM FZD CRD-Fc, overnight at 4° C.; FZD1, FZD2 and FZD7 CRD-Fc
Procedure: (§1) Fluorescence size-exclusion chromatography (FSEC) experiments were run using an AKTA FPLC system (General Electric Company) with UNICORN software package (version 5.31). Samples were resolved using a SEC3000 or SEC2000 (Phenomenex; Torrence, Calif.) column at 0.5 mL/min in phosphate buffer. Fluorescence was monitored using a FP-2020 Plus fluorescence detector (Jasco Analytical Instruments, Easton, Md.) in normal mode (excitation/emission, […]; gain=100; STD=32). All samples were prepared with a final DMSO concentration of 1% and incubated overnight at 4° C. prior to sample separation. FZD CRD-Fc samples were kept at ˜250 nM in the presence of excess 5FAM labeled peptide (1 μM). […]
Selective targeting of the FZD7 receptor subclass was also observed chromatographically. […] See FIGS. 4A and 4B, which provide representative fluorescence traces of 1 μM 5FAM-Fz7-21 and 1 μM 5FAM-Fz7-21S, respectively, incubated with various FZD CRD-Fc proteins (250 nM) overnight at 4° C. prior to analysis by FSEC. […] In FIG. 24A, molecular weight (MW) standards analyzed by UV absorption were plotted as a function of elution volume (Ve) over void volume (Vo). […] Measured values represent the mean±standard deviation (SD) of three independent experiments. […] Binding to recombinant FZD3 and 6 CRDs could not be assessed due to challenges with the expression of these proteins. […]

[1] = test system: FZD7, FZD4, 5 or 6 receptors stably expressed in HEK293 cells; experiment: flow cytometry of cells stably expressing gD-FZD; format: binding; conditions: peptide 12.5 μM
Procedure: Cell lines stably expressing gD-FZD were grown to ˜80% confluence in DMEM:F12 (50:50) media supplemented with 10% FBS (cat. no. 1500-100; Seradigm), 1× GlutMAX (cat. no. 35050-061; Gibco) and G418 (200 μg/mL; cat. no. A1720; Sigma), released with 0.05% trypsin/EDTA in PBS (cat. no. 15400-054; Gibco), collected on ice and buffer exchanged into ice cold FACS buffer (0.5% BSA and 0.05% NaAz in PBS). 100,000 cells/well were plated into an ice cold U-bottomed plate (cat. no. 3799; Costar) and cells pelleted by centrifugation at 1200 rpm for 3 min. […] Data was collected with FACSDiva (BD; version 8.0.1) and analyzed using FLowJo (FlowJo, LLC; v10.1).
Selective targeting of the FZD7 receptor subclass was also observed chromatographically. […] See FIGS. 4A and 4B, which provide representative fluorescence traces of 1 μM 5FAM-Fz7-21 and 1 μM 5FAM-Fz7-21S, respectively, incubated with various FZD CRD-Fc proteins (250 nM) overnight at 4° C. prior to analysis by FSEC. […] In FIG. 24A, molecular weight (MW) standards analyzed by UV absorption were plotted as a function of elution volume (Ve) over void volume (Vo). […] Measured values represent the mean±standard deviation (SD) of three independent experiments. […] Binding to recombinant FZD3 and 6 CRDs could not be assessed due to challenges with the expression of these proteins.

[2] = test system: human sFRP1, sFRP2, sFRP3, sFRP4, or sFRP5; experiment: FSEC with secreted Frizzled-related proteins; format: binding; conditions: sFRP ~250 nM, peptide 10 μM
Procedure: as §1, with “μM). Human secreted Frizzled-related proteins were maintained at ˜250 nM in the presence of excess 5FAM-labeled peptide (10 μM).” for “μM).”
For FIGS. 4C and 5C, values represent the mean±s.e.m. of three independent experiments. […] Samples were resolved using a SEC3000 column (Phenomenex; Torrence, Calif.) at 0.5 mL/min in phosphate buffer saline (PBS) and fluorescence was monitored with an FP-2020 Plus fluorescence detector (Jasco Analytical Instruments, Easton, Md.) using normal mode (excitation/emission […]); gain=100; STD=32. […] Molecular weights were determined by standards (BioRad catalogue number, 151-1901) run prior to sample runs.

binding (FZD CRD-Fc; FZD5, FZD8, FZD9 and FZD10 CRDs): little to no binding
EC50 (FZD CRD-Fc; hFZD1 CRD-Fc, hFZD2 CRD-Fc, hFZD7 CRD-Fc, and mFZD7 CRD-Fc, read-out: affinities): 39 to 116 nM
binding to sFRPs by FSEC [2]: not found to bind
SMILES: CSCC[C@H](NC(=O)[C@@H](NC(=O)[C@H](Cc1c[nH]cn1)NC(=O)[C@H](CS)NC(=O)[C@H](Cc1c[nH]c2ccccc12)NC(=O)[C@H](Cc1ccccc1)NC(=O)[C@H](CCC(=O)O)NC(=O)[C@H](CC(C)C)NC(=O)[C@H](CC(=O)O)NC(=O)[C@H](CC(=O)O)NC(=O)[C@H](CO)NC(=O)[C@@H]1CCCN1C(=O)[C@H](CC(C)C)NC(=O)c1ccc2c(c1)C(=O)OC21c2ccc(O)cc2Oc2cc(O)ccc21)C(C)C)C(=O)N[C@@H](Cc1ccc(O)cc1)C(N)=O [5FAM-Fz7-21] (5FAM-LPSDDLEFWCHVMY-NH2; N-terminus and C-terminus assumed)
complex with FZD CRD-Fc resolved by FSEC (FZD CRD-Fc proteins): could be resolved
binding by flow cytometry analysis [1]: predominant binding to FZD7 with minimal binding to FZD4, 5 or 6 receptors
